Results: ChEMBL document CHEMBL4725268, “Anticonvulsant and analgesic in neuropathic pain activity in a group of new aminoalkanol derivatives” (Bioorg Med Chem Lett, 2020)
Active and inactive are the calls of the source.

Columns and labels:
Mus musculus [1] = assay: Antiallodynic activity in mouse model of OXA-induced peripheral neuropathy assessed as mean paw withdrawal threshold at 15 mg/kg, ip administered after 3 hrs of OXA stimulation and measured after 1 hr by Von-frey method (reference value: 3.144 +/- 0.169 g); assay type: functional
Astrocyte [2] = assay: Cytotoxicity against mouse Astrocyte assessed as reduction in cell viability at 100 uM incubated for 24 hrs by LDH assay; assay type: cell-based
[3] = Genotoxicity in Salmonella typhimurium TA100 assessed as number of revertant at 200 ug by AMES test (reference value: 64.3 to 130.7); assay type: toxicity, Salmonella enterica subsp. enterica serovar Typhimurium; conditions: in vivo; dose 200 µg
in vitro [4] = conditions: mouse, microsomes
Description: Metabolic stability in mouse microsome assessed as half life

Astrocyte [5] = assay: Cytotoxicity against mouse Astrocyte assessed as reduction in cell viability at 100 uM incubated for 48 hrs by trypan blue assay; assay type: cell-based
[6] = Genotoxicity in Salmonella typhimurium TA100 assessed as mutagenic index at 200 ug by AMES test; assay type: toxicity, Salmonella enterica subsp. enterica serovar Typhimurium; conditions: in vivo; dose 200 µg
[7] = Genotoxicity in Salmonella typhimurium TA100 assessed as mutagenic index at 0.1 ug by AMES test; assay type: toxicity, Salmonella enterica subsp. enterica serovar Typhimurium; conditions: in vivo; dose 0.1 µg
[8] = Genotoxicity in Salmonella typhimurium TA100 assessed as number of revertant at 1 ug by AMES test (reference value: 64.3 to 130.7); assay type: toxicity, Salmonella enterica subsp. enterica serovar Typhimurium; conditions: in vivo; dose 1 µg
[9] = Toxicity in mouse assessed as lethality at 50 mg/kg, ip; assay type: organism-based; conditions: in vivo
[10] = Genotoxicity in Salmonella typhimurium TA100 assessed as number of revertant at 10 ug by AMES test (reference value: 64.3 to 130.7); assay type: toxicity, Salmonella enterica subsp. enterica serovar Typhimurium; conditions: in vivo; dose 10 µg
[11] = Genotoxicity in Salmonella typhimurium TA98 assessed as number of revertant at 750 ug by AMES test (reference value: 8 to 8.3); assay type: toxicity, Salmonella enterica subsp. enterica serovar Typhimurium; conditions: in vivo; dose 750 µg
in vitro [12] = conditions: mouse, microsomes; remark: listed apart in the source
Description: Metabolic stability in mouse microsome assessed as intrinsic clearance

[13] = Genotoxicity in Salmonella typhimurium TA98 assessed as number of revertant at 500 ug by AMES test (reference value: 8 to 8.3); assay type: toxicity, Salmonella enterica subsp. enterica serovar Typhimurium; conditions: in vivo; dose 500 µg
[14] = Drug metabolism in mouse microsome assessed as formation of monohydroxylated metabolite; assay type: ADME; conditions: microsomes
[15] = Genotoxicity in Salmonella typhimurium TA98 assessed as mutagenic index at 500 ug by AMES test; assay type: toxicity, Salmonella enterica subsp. enterica serovar Typhimurium; conditions: in vivo; dose 500 µg
[16] = Genotoxicity in Salmonella typhimurium TA98 assessed as number of revertant at 75 ug by AMES test (reference value: 8 to 8.3); assay type: toxicity, Salmonella enterica subsp. enterica serovar Typhimurium; conditions: in vivo; dose 75 µg
[17] = Genotoxicity in Salmonella typhimurium TA98 assessed as number of revertant at 200 ug by AMES test (reference value: 8 to 8.3); assay type: toxicity, Salmonella enterica subsp. enterica serovar Typhimurium; conditions: in vivo; dose 200 µg
[18] = Genotoxicity in Salmonella typhimurium TA98 assessed as mutagenic index at 200 ug by AMES test; assay type: toxicity, Salmonella enterica subsp. enterica serovar Typhimurium; conditions: in vivo; dose 200 µg
[19] = Genotoxicity in Salmonella typhimurium TA100 assessed as number of revertant at 0.1 ug by AMES test (reference value: 64.3 to 130.7); assay type: toxicity, Salmonella enterica subsp. enterica serovar Typhimurium; conditions: in vivo; dose 0.1 µg
[20] = Antioxidant activity assessed as DPPH radical scavenging activity at 125 to 1000 uM by microplate method; assay type: functional; conditions: dose microM 125-1000
[21] = Genotoxicity in Salmonella typhimurium TA98 assessed as mutagenic index at 750 ug by AMES test; assay type: toxicity, Salmonella enterica subsp. enterica serovar Typhimurium; conditions: in vivo; dose 750 µg
[22] = Genotoxicity in Salmonella typhimurium TA98 assessed as number of revertant at 10 ug by AMES test (reference value: 8 to 8.3); assay type: toxicity, Salmonella enterica subsp. enterica serovar Typhimurium; conditions: in vivo; dose 10 µg
Astrocyte [23] = assay: Cytotoxicity against mouse Astrocyte assessed as reduction in cell viability at > 25 uM measured upto 48 hrs by crystal violet staining colorimetric assay; assay type: cell-based
Mus musculus [24] = assay: Antiallodynic activity in mouse model of OXA-induced peripheral neuropathy assessed as mean latency time to nocifensive response at 15 mg/kg, ip administered after 7 days of OXA stimulation and measured after 1 hr by cold plate method (reference value: 57.64 +/- 1.267 sec); assay type: functional
[25] = Genotoxicity in Salmonella typhimurium TA100 assessed as number of revertant at 75 ug by AMES test (reference value: 64.3 to 130.7); assay type: toxicity, Salmonella enterica subsp. enterica serovar Typhimurium; conditions: in vivo; dose 75 µg
[26] = Genotoxicity in Salmonella typhimurium TA98 assessed as mutagenic index at 10 ug by AMES test; assay type: toxicity, Salmonella enterica subsp. enterica serovar Typhimurium; conditions: in vivo; dose 10 µg
Mus musculus [27] = assay: Anticonvulsant activity in ip dosed mouse assessed as protection against current-induced seizure by maximal electroshock seizure test; assay type: functional
[28] = Genotoxicity in Salmonella typhimurium TA100 assessed as mutagenic index at 75 ug by AMES test; assay type: toxicity, Salmonella enterica subsp. enterica serovar Typhimurium; conditions: in vivo; dose 75 µg
Mus musculus [29] = assay: Antiallodynic activity in mouse model of OXA-induced peripheral neuropathy assessed as mean latency time to nocifensive response at 15 mg/kg, ip administered after 3 hrs of OXA stimulation and measured after 1 hr by cold plate method (reference value: 59.76 +/- 0.16 sec); assay type: functional
Mus musculus [30] = assay: Antiallodynic activity in mouse model of OXA-induced peripheral neuropathy assessed as mean paw withdrawal threshold at 15 mg/kg, ip administered after 7 days of OXA stimulation and measured after 1 hr by Von-frey method (reference value: 3.192 +/- 0.181 g); assay type: functional
[31] = Protection index, ratio of TD50 for toxicity in ip dosed mouse to ED50 for anticonvulsant activity in ip dosed mouse; assay type: organism-based; conditions: in vivo, read-out: PI
[32] = Genotoxicity in Salmonella typhimurium TA98 assessed as mutagenic index at 75 ug by AMES test; assay type: toxicity, Salmonella enterica subsp. enterica serovar Typhimurium; conditions: in vivo; dose 75 µg
[33] = target: T1, 5-hydroxytryptamine receptor 1A (Homo sapiens, UniProt P08908); assay: Binding affinity to 5-HT1A (unknown origin)
T1 sequence (P08908 whole entry): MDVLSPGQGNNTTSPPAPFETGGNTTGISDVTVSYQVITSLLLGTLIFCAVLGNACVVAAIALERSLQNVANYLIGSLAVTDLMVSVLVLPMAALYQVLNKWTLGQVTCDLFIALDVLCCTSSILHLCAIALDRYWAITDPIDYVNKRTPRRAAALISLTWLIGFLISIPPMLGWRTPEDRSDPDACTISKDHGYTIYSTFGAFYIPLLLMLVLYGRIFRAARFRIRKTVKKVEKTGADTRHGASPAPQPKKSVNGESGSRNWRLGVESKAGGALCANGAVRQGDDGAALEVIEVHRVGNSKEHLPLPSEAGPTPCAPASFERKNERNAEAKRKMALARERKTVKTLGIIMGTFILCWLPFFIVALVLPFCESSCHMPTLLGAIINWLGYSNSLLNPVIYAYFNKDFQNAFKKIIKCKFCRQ

Astrocyte [34] = assay: Cytotoxicity against human Astrocyte assessed as reduction in cell viability at 50 uM incubated for 24 hrs by MTT assay; assay type: cell-based
[35] = Genotoxicity in Salmonella typhimurium TA100 assessed as mutagenic index at 10 ug by AMES test; assay type: toxicity, Salmonella enterica subsp. enterica serovar Typhimurium; conditions: in vivo; dose 10 µg
[36] = Genotoxicity in Salmonella typhimurium TA100 assessed as mutagenic index at 1 ug by AMES test; assay type: toxicity, Salmonella enterica subsp. enterica serovar Typhimurium; conditions: in vivo; dose 1 µg
[37] = Toxicity in ip dosed mouse assessed as motor impairment by rotarod test; assay type: organism-based; conditions: in vivo

For `Cc1cc(C)c(C)c(OCCN[C@@H]2CCCC[C@H]2O)c1` (racemic), the Activity (Mus musculus [1]) was 2.222 g, the Activity (Astrocyte [2]) was “Toxic” and the Activity [3] was 49. The half-life (in vitro [4]) was 27.2 min, the Activity (Astrocyte [5]) was “Toxic” and the Activity_index [6] was 0.7. The Activity_index [7] was 1.1, the Activity [8] was 138.3 and the Activity [9] was “Non-Toxic”. It also gave an Activity [10] of 185.5, an Activity [11] of 9.3 and a microsomal CLint (in vitro [12]) of 128 µL/min/mg. For the same molecule, the Activity [13] was 8.7, the Drug metabolism [14] was “Metabolite_Detected” and the Activity_index [15] was 1.1. The Activity [16] was 6.3, the Activity [17] was 6.7 and the Activity_index [18] was 0.8. For the same molecule, the Activity [19] was 147, the Activity [20] was “inactive” and the Activity_index [21] was 1.2. The Activity [22] was 7.3, the Activity (Astrocyte [23]) was “Toxic” and the Time (Mus musculus [24]) was 9.278 s. The Activity [25] was 105, the Activity_index [26] was 0.9 and the ED50 (Mus musculus [27]) was 15.7 mg/kg. It also gave an Activity_index [28] of 1.4, a Time (Mus musculus [29]) of 22.333 s and an Activity (Mus musculus [30]) of 2.122 g. The selectivity ratio [31] was 5, the Activity_index [32] was 0.8 and the Ki [33] was 1010 nM. For the same molecule, the Activity (Astrocyte [34]) was “Toxic”, the Activity_index [35] was 2.6 and the Activity_index [36] was 1.1. It also gave a TD50 [37] of 78.3 mg/kg.
